According to ChEMBL document CHEMBL1201862, “PubChem BioAssay data set” (2004):
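Growth conditions: 96-well plates. Treatment: test compound, 48 hours, 5 concentrations. Analysis: linear interpolation between bracketing concentrations; unreached endpoints set to highest concentration. GI50 is the concentration that inhibits growth by half.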 Activity calls are given as the source filed them. No stated cut-off is given here; in the data, active = GI50 up to about 1.1 µM and inactive = higher.

Legend:
Assay in all cases: DTP human tumour cell line panel, 48 h
[1] = test system: A498
[2] = test system: HT-29
[3] = test system: HCT-116
[4] = test system: COLO 205
[5] = test system: SNB-19
[6] = test system: CAKI-1
[7] = test system: TK-10
[8] = test system: SK-MEL-2
[9] = test system: OVCAR-8
[10] = test system: UO-31
[11] = test system: SR
[12] = test system: HOP-92
[13] = test system: M14
[14] = test system: SN12C
[15] = test system: KM12
[16] = test system: EKVX
[17] = test system: MOLT-4
[18] = test system: A549
[19] = test system: NCI/ADR-RES
[20] = test system: MDA-MB-231

O=C(/C=C(\O)C(=O)O)/C=C(\O)c1ccccc1Cl
GI50 [1]: > 100 µM (inactive)
GI50 [2]: > 100 µM (inactive)
GI50 [3]: > 100 µM (inactive)
GI50 [4]: > 100 µM (inactive)
GI50 [5]: > 100 µM (inactive)
GI50 [6]: > 100 µM (inactive)
GI50 [7]: > 100 µM (inactive)
GI50 [8]: > 100 µM (inactive)
GI50 [9]: > 100 µM (inactive)
GI50 [10]: > 100 µM (inactive)
GI50 [11]: > 100 µM (inactive)
GI50 [12]: > 100 µM (inactive)
GI50 [13]: > 100 µM (inactive)
GI50 [14]: > 100 µM (inactive)
GI50 [15]: > 100 µM (inactive)
GI50 [16]: > 100 µM (inactive)
GI50 [17]: > 100 µM (inactive)
GI50 [18]: > 100 µM (inactive)

Cc1nc(C(N)=S)sc1C(/C=C/c1ccc(Cl)c(Cl)c1)=N/NC(C)(C)C
GI50 [2]: > 100 µM (inactive)
GI50 [3]: > 100 µM (inactive)
GI50 [19]: > 100 µM (inactive)
GI50 [4]: > 100 µM (inactive)
GI50 [5]: > 100 µM (inactive)
GI50 [6]: > 100 µM (inactive)
GI50 [7]: > 100 µM (inactive)
GI50 [8]: > 100 µM (inactive)
GI50 [9]: > 100 µM (inactive)
GI50 [10]: 33.2 µM (inactive)
GI50 [20]: > 100 µM (inactive)
GI50 [12]: > 100 µM (inactive)
GI50 [14]: > 100 µM (inactive)
GI50 [15]: > 100 µM (inactive)
GI50 [16]: > 100 µM (inactive)
GI50 [17]: 22.3 µM (inactive)
GI50 [18]: > 100 µM (inactive)

O=C1CC(Cl)c2c(Cl)sc(Cl)c21 (centres undefined)
GI50 [1]: 12.2 µM (inactive)
GI50 [2]: 2.23 µM (inactive)
GI50 [3]: 1.69 µM (inactive)
GI50 [19]: 3.35 µM (inactive)
GI50 [4]: 2.02 µM (inactive)
GI50 [5]: 11.4 µM (inactive)
GI50 [6]: 1.76 µM (inactive)
GI50 [7]: 2.36 µM (inactive)
GI50 [9]: 1.8 µM (inactive)
GI50 [10]: 1.99 µM (inactive)
GI50 [11]: 1.41 µM (inactive)
GI50 [12]: 1.74 µM (inactive)
GI50 [13]: 1.88 µM (inactive)
GI50 [14]: 1.84 µM (inactive)
GI50 [15]: 1.67 µM (inactive)
GI50 [16]: 3.94 µM (inactive)
GI50 [17]: 1.23 µM (inactive)
GI50 [18]: 3.56 µM (inactive)

CCC[S+]([O-])c1nc(COC(=O)NC)c(COC(=O)NC)n1C (centres undefined)
GI50 [1]: > 100 µM (inactive)
GI50 [2]: > 100 µM (inactive)
GI50 [3]: > 100 µM (inactive)
GI50 [19]: > 100 µM (inactive)
GI50 [4]: > 100 µM (inactive)
GI50 [5]: > 100 µM (inactive)
GI50 [6]: > 100 µM (inactive)
GI50 [8]: > 100 µM (inactive)
GI50 [9]: > 100 µM (inactive)
GI50 [10]: > 100 µM (inactive)
GI50 [11]: > 100 µM (inactive)
GI50 [12]: > 100 µM (inactive)
GI50 [13]: > 100 µM (inactive)
GI50 [14]: > 100 µM (inactive)
GI50 [15]: > 100 µM (inactive)
GI50 [16]: > 100 µM (inactive)
GI50 [17]: > 100 µM (inactive)
GI50 [18]: > 100 µM (inactive)

N#Cc1nc(C2SCCCS2)oc1N
GI50 [1]: > 100 µM (inactive)
GI50 [2]: > 100 µM (inactive)
GI50 [3]: > 100 µM (inactive)
GI50 [5]: > 100 µM (inactive)
GI50 [6]: > 100 µM (inactive)
GI50 [7]: > 100 µM (inactive)
GI50 [8]: > 100 µM (inactive)
GI50 [9]: > 100 µM (inactive)
GI50 [20]: > 100 µM (inactive)
GI50 [11]: > 100 µM (inactive)
GI50 [12]: > 100 µM (inactive)
GI50 [13]: > 100 µM (inactive)
GI50 [14]: > 100 µM (inactive)
GI50 [15]: > 100 µM (inactive)
GI50 [16]: > 100 µM (inactive)
GI50 [17]: > 100 µM (inactive)
GI50 [18]: > 100 µM (inactive)

CC(=O)Oc1cc(C(F)(F)F)ccc1C(=O)OC1(C)OC(=O)c2ccc(C(F)(F)F)cc2O1 (centres undefined)
GI50 [1]: > 100 µM (inactive)
GI50 [2]: > 100 µM (inactive)
GI50 [3]: > 100 µM (inactive)
GI50 [19]: > 100 µM (inactive)
GI50 [4]: > 100 µM (inactive)
GI50 [5]: > 100 µM (inactive)
GI50 [6]: > 100 µM (inactive)
GI50 [7]: > 100 µM (inactive)
GI50 [9]: > 100 µM (inactive)
GI50 [10]: > 100 µM (inactive)
GI50 [20]: > 100 µM (inactive)
GI50 [12]: > 100 µM (inactive)
GI50 [13]: > 100 µM (inactive)
GI50 [14]: 97.5 µM (inactive)
GI50 [15]: > 100 µM (inactive)
GI50 [16]: > 100 µM (inactive)
GI50 [17]: > 100 µM (inactive)
GI50 [18]: > 100 µM (inactive)

CC1CC(C)C2OC2(C)C[C@H](C)C(=O)NC(C)C(=O)N(C)[C@H](Cc2c(Br)[nH]c3ccccc23)C(=O)N[C@@H](c2ccc(O)cc2)CC(=O)O1 (some centres undefined)
GI50 [1]: 0.522 µM (active)
GI50 [2]: 0.106 µM (active)
GI50 [3]: 0.0396 µM (active)
GI50 [4]: 0.0214 µM (active)
GI50 [5]: 0.0661 µM (active)
GI50 [6]: 1.09 µM (active)
GI50 [7]: 0.741 µM (active)
GI50 [8]: 0.033 µM (active)
GI50 [9]: 4.89 µM (inactive)
GI50 [10]: 10 µM (inactive)
GI50 [11]: 0.277 µM (active)
GI50 [12]: 0.352 µM (active)
GI50 [13]: 0.729 µM (active)
GI50 [14]: 0.776 µM (active)
GI50 [15]: 0.249 µM (active)
GI50 [16]: 2.02 µM (inactive)
GI50 [17]: 1.34 µM (inactive)
GI50 [18]: 0.28 µM (active)
